Source: publication PMC11020070, “Discovery of Protease-Activated Receptor 4 (PAR4)-Tethered Ligand Antagonists Using Ultralarge Virtual Screening” (ACS Pharmacology & Translational Science, 2024)
Like-named read-outs stand apart in the source and are kept apart here.

What was measured:
[1] = parameters: method as in PMID 35758258, PMID 23222541; conditions: phase I, healthy participants; cited from earlier work
PAR4 = target: T1, PAR4 (Homo sapiens, UniProt Q96RI0); test: Human platelet activity assay, flow cytometry, γ-thrombin activation; assay type: cell-based; parameters: endogenous in cells; host or cells: washed human platelets from healthy volunteers; conditions: human platelets, 100 nM γ-thrombin
T1 sequence (Q96RI0 18-385): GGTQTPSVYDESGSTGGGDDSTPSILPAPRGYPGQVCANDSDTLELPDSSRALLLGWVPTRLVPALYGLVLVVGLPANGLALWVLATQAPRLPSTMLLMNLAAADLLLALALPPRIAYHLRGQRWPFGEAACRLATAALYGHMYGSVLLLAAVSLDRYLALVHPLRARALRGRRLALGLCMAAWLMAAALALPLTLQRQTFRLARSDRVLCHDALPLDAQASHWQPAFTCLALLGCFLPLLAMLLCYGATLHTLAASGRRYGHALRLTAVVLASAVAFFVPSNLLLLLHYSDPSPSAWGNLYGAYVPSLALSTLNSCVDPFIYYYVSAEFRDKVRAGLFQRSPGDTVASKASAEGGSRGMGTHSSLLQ
Procedure: To test the antagonistic effect of the compounds on PAR4, a flow cytometry assay of human platelets was employed. Each compound was screened at 10 μM in human platelets using flow cytometry for GPIIbIIIa activation (PAC1) and P-selectin (CD62p) expression as previously described.[4] Activation of GPIIbIIIa allows interaction with divalent fibrinogen or multivalent von Willebrand factor, leading to platelet aggregation.[41] PAR4 stimulation also triggers α-granule secretion containing P-selectin.[5] […] Platelets were treated with each test compound or vehicle control DMSO before activating with γ-thrombin (100 nM) or PAR4 agonist peptide mimetic (200 μM, “PAR4-AP” AYPGKF) for 30 min. γ-thrombin activates PAR4 but not PAR1.[42]
Activation of washed human platelets was monitored by flow cytometry for the detection of PAC1 (GPIIbIIIa activation) and CD62p (P-selectin expression) binding as previously described.[4] Human platelets were obtained from healthy volunteers. The Vanderbilt University Internal Review Board approved these studies. Informed consent was obtained from all individuals prior to the blood draw. 10 mL of whole blood was collected into 0.32% Na citrate. Platelet-rich plasma was collected after room-temperature centrifugation at 1100 rpm for 15 min on a Thermo Forma 400 centrifuge (Thermo Fisher, Waltham, MA). 1/10 volume of acid citrate dextrose (ACD) buffer was added to the collected supernatant and incubated for 10 min. After centrifugation at 2400 rpm for 10 min, the platelet pellet was resuspended in 1 mL Tyrode’s buffer (“TBB”: 15 mM HEPES, 0.33 mM NaH2PO4, pH 6.4, 138 mM NaCl, 2.7 mM KCl, 1 mM MgCl2, 5.5 mM dextrose, 0.1% bovine serum albumin). Platelets were collected, counted on a Z1 Coulter Particle Counter (Beckman Coulter, Brea, CA), and diluted in TBB to 1.5 × 10^7 platelets/mL. 60 uL of platelets were aliquoted to each tube and preincubated with 40 μL of TBB with antibodies PAC1 FITC (Becton Dickinson, Franklin Lakes NJ) and P-selectin PE (Becton Dickinson) and either test compound antagonist or DMSO vehicle control for 20 min. Platelets were then activated with 100 nM γ-thrombin or other agonists for 30 min. Samples were then fixed by adding 100 μL of 2% paraformaldehyde. After 30 min, samples were diluted by adding 300 μL of phosphate-buffered saline (PBS) and stored at 4C. Data were collected on a three-laser BD LSRFortessa (Becton Dickinson) and analyzed with FlowJo software (FlowJo LLC, Ashland, OR). The mean fluorescence intensity (geometric) of PE and FITC was determined from 30,000 events after compensation correction. Data were normalized to vehicle (DMSO) controls.
Compounds were screened for inhibition activity against human PAR4 using 100 nM γ-thrombin or 200 μM PAR4-AP in a single-point assay (10 μM test compound).

mouse PAR4 = target: T2, mouse PAR4 (Mus musculus, UniProt O88634); test: Mouse platelet activity assay, flow cytometry, γ-thrombin activation; assay type: cell-based
T2 construct: washed mouse platelets were prepared by collecting cardiac puncture blood; endogenous in cells; host or cells: washed mouse platelets (cardiac puncture blood)
T2 sequence (O88634 17-396): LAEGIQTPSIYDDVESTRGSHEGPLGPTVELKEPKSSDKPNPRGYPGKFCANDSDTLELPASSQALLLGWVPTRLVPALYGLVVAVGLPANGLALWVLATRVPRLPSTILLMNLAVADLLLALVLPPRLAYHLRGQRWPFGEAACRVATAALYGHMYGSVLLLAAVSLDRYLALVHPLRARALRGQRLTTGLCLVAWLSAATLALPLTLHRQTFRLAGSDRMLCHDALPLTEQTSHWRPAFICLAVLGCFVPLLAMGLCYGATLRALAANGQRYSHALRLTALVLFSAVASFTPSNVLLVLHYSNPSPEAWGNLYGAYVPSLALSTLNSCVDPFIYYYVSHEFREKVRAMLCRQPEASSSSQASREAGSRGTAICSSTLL
Procedure: For mouse PAR4 activity, washed mouse platelets were prepared by collecting cardiac puncture blood with 200 μL of 20 U/mL heparin. Following centrifugation at 1000 rpm for 15 min, plasma and buffy coat were collected into a separate tube and spiked with apyrase and PGE1. After centrifuging at 1000 rpm for 8 min, the platelet-rich plasma was transferred to another tube and centrifuged at 2200 rpm for 10 min to pellet the platelets. Platelets were resuspended in TBB + apyrase + PGE1. Platelets were counted and diluted in TBB to a final concentration of 2 × 10^7 platelets/mL. 50 μL of platelets were aliquoted to each tube preincubated with 50 μL of TBB with antibodies for mouse GPIIbIIIa and P-selectin (Emfret, Eibelstadt Germany) and either test compound antagonist or DMSO control. Platelets were activated with 316 nM γ-thrombin for 30 min. Samples were then fixed with 100 μL of 2% paraformaldehyde for 20 min and diluted with 300 μL of PBS. Flow cytometry counts are measured as for human platelets on a three-laser BD LSRFortessa (Becton Dickinson) and analyzed with FloJo software.

[2] = Microsomal stability, human liver microsomes; assay type: in vitro ADME
Procedure: The metabolic stability of each compound was investigated in mouse and human hepatic microsomes using substrate depletion methodology (% parent compound remaining). Prior to use, microsomes were removed from the freezer and allowed to thaw in a 37 °C water bath before being placed on wet ice.
In separate 96-well plates for each time point, a mixture of 0.1 M potassium phosphate-buffered (pH 7.4), 3 mM MgCl2, and 2.5 mg/mL microsomes were prewarmed at 37 °C for 5 min. Following the preincubation, a 1 μM test compound and 1 mM NADPH (for 3, 7, 15, 25, or 45 min time points) or buffer (for 0 min time point) were added to initiate the reaction. Under standard conditions, reactions were initiated with the addition of NADPH. To delineate the contribution of esterases, some experiments were initiated by the addition of substrate in the presence or absence of NADPH. Plates were incubated at 37 °C under ambient oxygenation. At the respective times, each plate’s reaction was precipitated by the addition of 2 volumes of ice-cold acetonitrile containing an internal standard (carbamazepine, 50 nM). The plates were centrifuged at 4000 rcf (4 °C) for 5 min. The resulting supernatants were transferred and diluted 1:1 (supernatant:water) into new 96-well plates in preparation for LC/MS/MS analysis. Each compound was assayed in triplicate within the same 96-well plate. The in vitro half-life (t1/2, min, eq 1), intrinsic clearance (CLint, mL/min/kg, eq 2), and subsequent predicted hepatic clearance (CLhep, mL/min/kg, eq 3) were determined employing the following equations [drawing 1] 1 [drawing 2] 2 [drawing 3] 3 The estimated percent contribution to metabolism was calculated from the percent substrate lost plots generated from metabolic incubations initiated with the addition of a test compound. Calculations compared the area under the curve (AUC) from conditions in the presence and absence of NADPH and buffer-only (control) conditions (eqs 4 and 5). AUC was calculated by using the trapezoidal method [drawing 4] 4 [drawing 5] 5
The analysis of in vitro samples from microsomal stability or plasma protein binding experiments was determined by employing LCMS/MS with an electrospray ionization-enabled 5500 Sciex instrument (Sciex, Foster City, CA) that was coupled to Agilent HPLC pumps and an autosampler (Agilent Technologies, Santa Clara, CA). Analytes were separated by gradient elution using a Kinetex C18 column (2.1 mm × 50 mm, 5 μm; Phenomenex, Torrance, CA) warmed to 35 °C. Mobile phase A was 0.5% formic acid in water, and mobile phase B was 0.5% formic acid in acetonitrile. […] The total run time was 2.8 min, and the HPLC flow rate was 0.5 mL/min. Mass spectral analyses were performed using multiple reaction monitoring, with transitions and voltages specific for each analyte using a Turbo Ion Spray source (source temperature of 500 °C) in positive ionization mode (5.0 kV spray voltage). Multiple reaction monitoring transitions were the following: 6110B8 (m/z 345.02 → 149.03, DP = 31; EP = 10; CE = 37 and CXP = 14), 6G3R (m/z 421.06 → 225.12, DP = 91; EP = 10; CE = 39 and CXP = 12), 5D22 (m/z 309.068 → 211.16, DP = 131; EP = 10; CE = 29 and CXP = 12), and carbamazepine (m/z 237 → 194, DP = 96; EP = 10; CE = 25 and CXP = 8). Data were analyzed using OS Sciex Analyst 1.5.1 (SCIEX, Framingham, MA), Graphpad Prism 10.1.0 (GraphPad Software, Boston, Massachusetts), and Microsoft Excel version 2310 (Microsoft, Redmond, WA).

[3] = Plasma protein binding, human plasma; assay type: in vitro ADME; conditions: pH 7.4, read-out: human PPB fu
[4] = GPIIbIIIa activation (PAC1), read-out: Human Platelets PAC1 IC50
[5] = P-selectin (CD62p), read-out: Human Platelets P-Sel IC50
[6] = mouse platelets, 316 nM γ-thrombin, GPIIbIIIa (JonA), read-out: Mouse Platelets JonA IC50
[7] = mouse platelets, 316 nM γ-thrombin, P-selectin, read-out: Mouse Platelets P-Sel IC50

Row | Compound | safety and tolerability [1] | IC50 (PAR4; [4]) | IC50 (PAR4; [5]) | IC50 (mouse PAR4; [6]) | IC50 (mouse PAR4; [7]) | CLint scaled at 1 µM ([2]; pH 7.4, human liver microsomes, in vitro, reaction started with NADPH) | human CLhep ([2]; predicted hepatic clearance from human liver microsomes) | fraction unbound at 4 h [3] | IC50 (mouse PAR4; Table 4 summary, read-out: mouse PAR4 IC50)
1 | COc1cc(OCc2csc(-c3ccc(C(=O)N(C)C)cc3)n2)c2cc(-c3cn4nc(OC)sc4n3)oc2c1 [BMS-986141] | safe and well tolerated |  |  |  |  |  |  |  | 
2 | Cc1nc(NC(=O)c2cc(-c3ccccc3)[nH]n2)n[nH]1 [Compound 8] |  | 2790 nM | 2210 nM |  |  |  |  |  | 
3 | Cc1nc(NC(=O)c2cc(C(=O)OC(C)(C)C)n(-c3ccccc3)n2)n[nH]1 [Compound 10] |  | 1130 nM | 1160 nM | 11300 nM | 6160 nM |  |  |  | 
4 | CC(C)c1cc(C(=O)Nc2n[nH]c(-c3c(F)cccc3F)n2)nn1C [Compound 11] |  | 606 nM | 847 nM | 1090 nM | 1630 nM |  |  |  | 
5 | Cn1nc(C(=O)Nc2n[nH]c(-c3ccccc3F)n2)cc1C1CC1 [Compound 13] |  | 593 nM | 630 nM | 715 nM | 699 nM |  |  |  | 
6 | Cn1nc(C(=O)Nc2n[nH]c(-c3ccccc3Cl)n2)cc1C1CC1 [Compound 14] |  | 835 nM | 1040 nM | 1340 nM | 1290 nM |  |  |  | 
7 | CCc1cc(C(=O)Nc2n[nH]c(-c3c(F)cccc3F)n2)nn1C [Compound 15] |  | 495 nM | 580 nM | 672 nM | 807 nM |  |  |  | 
8 | Cn1nc(C(=O)Nc2n[nH]c(-c3ccc(C#N)cc3)n2)cc1C1CC1 [Compound 16] |  | 460 nM | 569 nM | 1140 nM | 1180 nM |  |  |  | 
9 | Cc1n[nH]c(NC(=O)c2nn(-c3cccc(F)c3)c3c2CCC3)n1 [Compound 19] |  | 923 nM | 1390 nM | 1190 nM | 1140 nM |  |  |  | 
10 | Cc1n[nH]c(NC(=O)c2nn(-c3ccc(F)cc3)c3c2CCC3)n1 [Compound 21] |  | 3250 nM | 4780 nM |  |  |  |  |  | 
11 | O=C(Nc1n[nH]c(C2CC2)n1)c1nn(-c2ccccc2)c2c1CCC2 [Compound 24] |  | 392 nM | 523 nM | 958 nM | 1130 nM |  |  |  | 
12 | O=C(Nc1n[nH]c(C2CC2)n1)c1nn(-c2ccccc2)c2c1CCCC2 [Compound 26] |  | 182 nM | 228 nM | 354 nM | 351 nM |  |  |  | 
13 | O=C(Nc1n[nH]c(-c2cccc(C(F)(F)F)c2)n1)c1nn(-c2ccccc2)c2c1CCCC2 [Compound 27] |  | 152 nM | 208 nM | 367 nM | 368 nM |  |  |  | 
14 | O=C(Nc1n[nH]c(C2CC2)n1)c1nn(-c2cccc(F)c2)c2c1CCCC2 [Compound 28] |  | 254 nM | 280 nM | 981 nM | 793 nM |  |  |  | 
15 | O=C(Nc1n[nH]c(-c2ccccc2)n1)c1nn(-c2ccccc2)c2c1CCCC2 [Compound 29] |  | 450 nM | 603 nM | 1110 nM | 1160 nM |  |  |  | 
16 | N#Cc1ccc(-c2nc(NC(=O)c3nn(-c4ccccc4)c4c3CCCC4)n[nH]2)cc1 [Compound 30] |  | 395 nM | 496 nM | 1840 nM | 1420 nM |  |  |  | 
17 | O=C(Nc1n[nH]c(-c2cccc(OC(F)F)c2)n1)c1nn(-c2ccccc2)c2c1CCCC2 [Compound 33] |  |  |  | 296 nM | 345 nM | 416 mL/min/kg | 20 mL/min/kg | 0.006 | 296 nM
